Assay results reported in US20240308968A1, “FUNGICIDAL SUBSTITUTED HETEROCYCLES” (FMC Corporation, priority 2021, published 2024).

How the values were obtained:
Type in all cases: in vivo
Conditions in all cases: 100 = 100% disease control, 0 = no control
Alternaria solani = assay: Test F: preventive spray on tomato seedlings, tomato early blight disease rating
Excerpt: (§1) General protocol for preparing test suspensions for Tests A-F: the test compounds were first dissolved in acetone in an amount equal to 3% of the final volume and then suspended at the desired concentration (in ppm) in acetone and purified water (50/50 mix by volume) containing 50 to 250 ppm of the surfactant PEG400 (polyhydric alcohol esters). The resulting test suspensions were then used in Tests A-F.
(§2) The test suspension was sprayed to the point of run-off on tomato seedlings. The following day the seedlings were inoculated with a spore suspension of Alternaria solani (the causal agent of tomato early blight) and incubated in a saturated atmosphere at 27° C. for 48 h, and then moved to a growth chamber at 20° C. for 3 days, after which time visual disease ratings were made. A rating of 100 indicates 100% disease control and a rating of 0 indicates no disease control (relative to the controls). A dash (-) indicates the compound was not tested.

[1] = test system: Puccinia recondita f. sp. Tritici; assay: Test B: preventive spray on wheat seedlings, wheat leaf rust disease rating
Excerpt: as §1
The test solution was sprayed to the point of run-off on wheat seedlings. The following day the seedlings were inoculated with a spore suspension of Puccinia recondita f. sp. Tritici (the causal agent of wheat leaf rust) and incubated in a saturated atmosphere at 20° C. for 24 h, and then moved to a growth chamber at 20° C. for 7 days, after which time disease ratings were made.
as §2

Zymoseptoria tritici = assay: Test A: preventive spray on wheat seedlings, wheat leaf blotch disease rating
Excerpt: as §1
The test solution was sprayed to the point of run-off on wheat seedlings. The following day the seedlings were inoculated with a spore suspension of Zymoseptoria tritici (the causal agent of wheat leaf blotch) and incubated in a saturated atmosphere at 24° C. for 48 h, and then moved to a growth chamber at 20° C. for 17 days, after which time disease ratings were made. […]

Botrytis cinerea = assay: Test E: preventive spray on tomato seedlings, tomato Botrytis disease rating
Excerpt: as §1
The test suspension was sprayed to the point of run-off on tomato seedlings. The following day the seedlings were inoculated with a spore suspension of Botrytis cinerea (the causal agent of tomato Botrytis) and incubated in a saturated atmosphere at 20° C. for 48 h, and then moved to a growth chamber at 24° C. for 3 days, after which time visual disease ratings were made.
as §2

Phakopsora pachyrhizi = assay: Test D: preventive spray on soybean seedlings, Asian soybean rust disease rating
Excerpt: as §1
The test solution was sprayed to the point of run-off on soybean seedlings. The following day the seedlings were inoculated with a spore suspension of Phakopsora pachyrhizi (the causal agent of Asian soybean rust) and incubated in a saturated atmosphere at 22° C. for 24 h and then moved to a growth chamber at 22° C. for 8 days, after which time visual disease ratings were made.
as §2

[2] = test system: Blumeria graminis f. sp. Tritici; assay: Test C: preventive spray on wheat seedlings, wheat powdery mildew disease rating
Excerpt: as §1
The test suspension was sprayed to the point of run-off on wheat seedlings. The following day the seedlings were inoculated with a spore dust of Blumeria graminis f. sp. Tritici, (also known as Erysiphe graminis f. sp. Tritici, the causal agent of wheat powdery mildew) and incubated in a growth chamber at 20° C. for 8 days, after which time visual disease ratings were made.
as §2

[3] = Alternaria solani, 120 h, 50 ppm
[4] = Puccinia recondita, 192 h, 50 ppm
[5] = Zymoseptoria tritici, 456 h, 50 ppm
[6] = Botrytis cinerea, 120 h, 50 ppm
[7] = Phakopsora pachyrhizi, 216 h, 50 ppm
[8] = Blumeria graminis, 192 h, 50 ppm

Row | SMILES | Test F disease control rating (Alternaria solani; 50 ppm) | Test B disease control rating ([1]; 50 ppm) | Test A disease control rating (Zymoseptoria tritici; 50 ppm) | Test E disease control rating (Botrytis cinerea; 50 ppm) | Test D disease control rating (Phakopsora pachyrhizi; 50 ppm) | Test C disease control rating ([2]; 50 ppm) | also measured
1 | COc1cc(OC)cc(-c2nc(Cl)nc(C)c2-c2ccc(F)cc2Cl)c1 [Compound 47] |  |  |  |  |  |  | Test F disease control rating (Alternaria solani; 250 ppm): 92%; Test B disease control rating ([1]; 250 ppm): 100%; Test A disease control rating (Zymoseptoria tritici; 250 ppm): 100%; Test E disease control rating (Botrytis cinerea; 250 ppm): 93%; Test D disease control rating (Phakopsora pachyrhizi; 250 ppm): 98%; Test C disease control rating ([2]; 250 ppm): 98%
2 | COc1cc(OC)c(Br)c(-c2nc(C)nc(C)c2-c2ccc(F)cc2Cl)c1 [Compound 59, 4-(2-bromo-3,5-dimethoxyphenyl)-2,6-dimethyl-5-(2-chloro-4-fluorophenyl)pyrimidine] |  |  |  |  |  |  | pest or weed control at 50 ppm (Alternaria solani; [3]): 98%; pest or weed control at 50 ppm [1, 4]: 100%; pest or weed control at 50 ppm (Zymoseptoria tritici; [5]): 100%; pest or weed control at 50 ppm (Botrytis cinerea; [6]): 88%; pest or weed control at 50 ppm (Phakopsora pachyrhizi; [7]): 100%; pest or weed control at 50 ppm [2, 8]: 100%
3 | COc1cc(OC)cc(-n2nc(CO)c(=O)c(C)c2-c2ccc(F)cc2F)c1 [Compound 23, 6-(2,4-difluorophenyl)-1-(3,5-dimethoxyphenyl)-3-(hydroxymethyl)-5-methyl-4(1H)-pyridazinone] |  |  |  |  |  |  | pest or weed control at 50 ppm (Alternaria solani; [3]): 53%; pest or weed control at 50 ppm [1, 4]: 68%; pest or weed control at 50 ppm (Zymoseptoria tritici; [5]): 3%; pest or weed control at 50 ppm (Botrytis cinerea; [6]): 46%; pest or weed control at 50 ppm (Phakopsora pachyrhizi; [7]): 43%; pest or weed control at 50 ppm [2, 8]: 0%
4 | COc1cc(OC)cc(-n2c(-c3ccc(F)cc3Cl)c(C)c(=O)n(C)c2=O)c1 [Compound 39, 6-(2-chloro-4-fluorophenyl)-1-(3,5-dimethoxyphenyl)-3,5-dimethyl-2,4(1H,3H)-pyrimidinedione] |  |  |  |  |  |  | pest or weed control at 50 ppm (Alternaria solani; [3]): 9%; pest or weed control at 50 ppm [1, 4]: 100%; pest or weed control at 50 ppm (Zymoseptoria tritici; [5]): 0%; pest or weed control at 50 ppm (Botrytis cinerea; [6]): 90%; pest or weed control at 50 ppm (Phakopsora pachyrhizi; [7]): 73%; pest or weed control at 50 ppm [2, 8]: 98%
5 | Cc1ncnc(-c2ccc(F)cc2Cl)c1-c1ccc(F)cc1Cl [Compound 43] |  |  |  |  |  |  | Test F disease control rating (Alternaria solani; 250 ppm): 0%; Test B disease control rating ([1]; 250 ppm): 0%; Test A disease control rating (Zymoseptoria tritici; 250 ppm): 0%; Test E disease control rating (Botrytis cinerea; 250 ppm): 0%; Test D disease control rating (Phakopsora pachyrhizi; 250 ppm): 78%; Test C disease control rating ([2]; 250 ppm): 0%
6 | COc1ccc(Cl)c(-c2nc(C)nc(C)c2-c2ccc(F)cc2Cl)c1 [Compound 50, 5-(2-chloro-4-fluorophenyl)-4-(2-chloro-5-methoxyphenyl)-2,6-dimethylpyrimidine] |  |  |  |  |  |  | pest or weed control at 250 ppm (Alternaria solani; Alternaria solani, 120 h, 250 ppm): 100%; pest or weed control at 250 ppm ([1]; Puccinia recondita, 192 h, 250 ppm): 100%; pest or weed control at 250 ppm (Zymoseptoria tritici; Zymoseptoria tritici, 456 h, 250 ppm): 100%; pest or weed control at 250 ppm (Botrytis cinerea; Botrytis cinerea, 120 h, 250 ppm): 99%; pest or weed control at 250 ppm (Phakopsora pachyrhizi; Phakopsora pachyrhizi, 216 h, 250 ppm): 100%; pest or weed control at 250 ppm ([2]; Blumeria graminis, 192 h, 250 ppm): 100%
7 | COc1ccc(Cl)c(-n2nc(Br)c(=O)c(Br)c2-c2ccc(F)cc2Cl)c1 [Compound 102] | 88% | 99% | 97% | 99% | 99% | 0% | 
8 | CCOC(=O)c1nn(-c2cc(OC)ccc2Cl)c(-c2ccc(F)cc2)c(C(=O)OCC)c1=O [Compound 82] | 0% | 28% | 3% | 0% | 0% | 0% | 
9 | CCOC(=O)c1nn(-c2cc(OC)ccc2Cl)c(-c2ccc(F)cc2F)c(C(=O)OCC)c1=O [Compound 81] | 0% | 19% | 0% | 0% | 0% | 0% | 
10 | Cc1cnn(-c2nn(C)c(=O)c(C)c2-c2ccccc2Cl)c1 [Compound 12] | 15% | 0% | 0% | 0% | 17% | 0% | 
11 | COc1ccc(Cl)c(-n2nc(C)c(=O)c(Br)c2-c2ccc(F)cc2Cl)c1 [Compound 124, 5-bromo-1-(2-chloro-5-methoxyphenyl)-6-(2-chloro-4-fluorophenyl)-3-methyl-4(1)-pyridazinone] | 100% | 100% | 100% | 99% | 100% | 100% | 
12 | COc1ccc(Cl)c(-n2nc(Cl)c(=O)c(Cl)c2-c2ccc(F)cc2Cl)c1 [Compound 103] | 99% | 100% | 100% | 100% | 100% | 97% | 
13 | COc1cc(OC)cc(-c2cc(C#N)c(=O)n(C)c2-c2ccc(F)cc2Cl)c1 [Compound 158] | 0% | 68% | 0% | 40% | 0% | 0% | 
14 | CCn1c(-c2c(F)cc(F)cc2F)c(-c2cc(OC)c(Cl)c(OC)c2)cc(C#N)c1=O [Compound 72] | 0% | 98% | 93% | 90% | 77% | 21% | 
15 | COc1cc(OC)c(Cl)c(-n2nc(C)c(=O)c(C)c2-c2ccc(F)cc2F)c1 [Compound 33, 1-(2-chloro-3,5-dimethoxyphenyl)-6-(2,4-difluorophenyl)-3,5-dimethyl-4(1H)-pyridazinone] |  |  |  |  |  |  | pest or weed control at 50 ppm (Alternaria solani; [3]): 94%; pest or weed control at 50 ppm [1, 4]: 100%; pest or weed control at 50 ppm (Zymoseptoria tritici; [5]): 100%; pest or weed control at 50 ppm (Botrytis cinerea; [6]): 98%; pest or weed control at 50 ppm (Phakopsora pachyrhizi; [7]): 100%; pest or weed control at 50 ppm [2, 8]: 100%
16 | COc1ccc(Cl)c(-n2nc(Br)c(=O)cc2-c2ccc(F)cc2Cl)c1 [Compound 136] | 0% | 99% | 82% | 99% | 0% | 68% | 
17 | COc1ccc(Cl)c(-n2nc(C)c(=O)c(Cl)c2-c2ccc(F)cc2Cl)c1 [Compound 123, 5-chloro-1-(2-chloro-5-methoxyphenyl)-6-(2-chloro-4-fluorophenyl)-3-methyl-4(1)-pyridazinone] | 100% | 100% | 100% | 99% | 100% | 100% | 
18 | COc1cc(-n2nc(CO)c(=O)c(C)c2-c2ccc(F)cc2F)cc(OC)c1Cl [Compound 32, 1-(4-chloro-3,5-dimethoxyphenyl)-6-(2,4-difluorophenyl)-3-(hydroxymethyl)-5-methyl-4(1H)-pyridazinone] |  |  |  |  |  |  | pest or weed control at 50 ppm (Alternaria solani; [3]): 0%; pest or weed control at 50 ppm [1, 4]: 0%; pest or weed control at 50 ppm (Zymoseptoria tritici; [5]): 0%; pest or weed control at 50 ppm (Botrytis cinerea; [6]): 0%; pest or weed control at 50 ppm (Phakopsora pachyrhizi; [7]): 25%; pest or weed control at 50 ppm [2, 8]: 0%
19 | COC(=O)c1nn(-c2cc(OC)ccc2Cl)c(-c2ccccc2F)c(Cl)c1=O [Compound 122] | 0% | 19% | 0% | 0% | 0% | 0% | 
